Source: article PMC3499488, “A Potential Peptide Therapeutic Derived from the Juxtamembrane Domain of the Epidermal Growth Factor Receptor” (PLoS ONE, 2012)
Like-named read-outs stand apart in the source and are kept apart here. Where a SMILES comes first, the peptide text is derived from it.

System: MDA-MB-231 cells
Test: Cell viability assay (CellTiter-Glo)
Type: cell-based, human
Excerpt: Assays are run in triplicate.

[1] = serum starved overnight (0.1% BSA, no FBS), 24 h treatment, CellTiter-Glo, mean ± S.D. of at least three independent experiments, read-out: EC50± S.D.

Row | Structure (SMILES) | EC50 (24 h) [µM] | EC50 [1] [µM]
1 | CC[C@H](C)[C@H](NC(=O)[C@H](Cc1c[nH]cn1)NC(=O)[C@H](CCCNC(=N)N)NC(=O)[C@H](CCCNC(=N)N)NC(=O)[C@@H](N)CCCNC(=N)N)C(=O)N[C@H](C(=O)N[C@@H](CCCNC(=N)N)C(=O)N[C@@H](CCCCN)C(=O)N[C@@H](CCCNC(=N)N)C(=O)N[C@H](C(=O)N[C@@H](CC(C)C)C(=O)N[C@@H](CCCNC(=N)N)C(=O)N[C@@H](CCCNC(=N)N)C(=O)N[C@@H](CC(C)C)C(=O)N[C@@H](CC(C)C)C(=O)N[C@@H](CCC(N)=O)C(=O)N[C@@H](CCC(=O)O)C(=O)N[C@@H](CCCNC(=N)N)C(=O)O)[C@@H](C)O)C(C)C [E-64562] (H-RRRHIVRKRTLRRLLQER-OH) | > 100 | 
2 | CC[C@H](C)[C@H](NC(=O)[C@H](CCCNC(=N)N)NC(=O)[C@H](CC(C)C)NC(=O)[C@H](CC(C)C)NC(=O)[C@H](C)NC(=O)[C@H](CCC(N)=O)NC(=O)[C@H](CC(N)=O)NC(=O)[C@@H]1CCCN1C(=O)[C@H](C)NC(=O)[C@H](CCC(=O)O)NC(=O)CNC(=O)[C@H](CO)NC(=O)[C@@H]1CCCN1C(=O)[C@@H](NC(=O)[C@H](CC(C)C)NC(=O)[C@@H]1CCCN1C(=O)[C@H](CCC(=O)O)NC(=O)[C@@H](NC(=O)CNC(=O)[C@H](CCCNC(=N)N)NC(=O)[C@H](CCCNC(=N)N)NC(=O)[C@H](CCCNC(=N)N)NC(=O)[C@H](CCC(N)=O)NC(=O)[C@H](CCCNC(=N)N)NC(=O)[C@H](CCCNC(=N)N)NC(=O)[C@H](CCCCN)NC(=O)[C@H](CCCCN)NC(=O)[C@@H](N)CCCNC(=N)N)C(C)C)[C@@H](C)O)C(=O)O [TE-66482] (H-RKKRRQRRRGVEPLTPSGEAPNQALLRI-OH) |  | > 100
3 | CC[C@H](C)[C@H](NC(=O)[C@H](CCCNC(=N)N)NC(=O)[C@H](CC(C)C)NC(=O)[C@H](CCC(=O)O)NC(=O)[C@H](CCC(=O)O)NC(=O)[C@H](CC(C)C)NC(=O)[C@H](C)NC(=O)[C@H](CCCNC(=N)N)NC(=O)[C@H](CCC(=O)O)NC(=O)[C@H](CCC(=O)O)NC(=O)[C@@H](NC(=O)[C@H](CCCNC(=N)N)NC(=O)[C@H](C)NC(=O)[C@H](CCCNC(=N)N)NC(=O)[C@H](CCC(=O)O)NC(=O)[C@H](CCC(=O)O)NC(=O)CNC(=O)[C@H](CCCNC(=N)N)NC(=O)[C@H](CCCNC(=N)N)NC(=O)[C@H](CCCNC(=N)N)NC(=O)[C@H](CCC(N)=O)NC(=O)[C@H](CCCNC(=N)N)NC(=O)[C@H](CCCNC(=N)N)NC(=O)[C@H](CCCCN)NC(=O)[C@H](CCCCN)NC(=O)[C@@H](N)CCCNC(=N)N)C(C)C)C(=O)N[C@@H](CCC(=O)O)C(=O)N[C@@H](CCC(=O)O)C(=O)O [T-control] (H-RKKRRQRRRGEERARVEERALEELRIEE-OH) |  | > 100
4 | CC(C)C[C@H](NC(=O)[C@H](CC(C)C)NC(=O)[C@H](CCCNC(=N)N)NC(=O)[C@H](CCCNC(=N)N)NC(=O)[C@H](C)NC(=O)[C@H](C)NC(=O)[C@H](CCCNC(=N)N)NC(=O)[C@H](CCCCN)NC(=O)[C@H](CCCNC(=N)N)NC(=O)[C@H](C)NC(=O)[C@H](C)NC(=O)[C@H](Cc1c[nH]cn1)NC(=O)[C@H](CCCNC(=N)N)NC(=O)[C@H](CCCNC(=N)N)NC(=O)[C@H](CCCNC(=N)N)NC(=O)CNC(=O)[C@H](CCCNC(=N)N)NC(=O)[C@H](CCCNC(=N)N)NC(=O)[C@H](CCCNC(=N)N)NC(=O)[C@H](CCC(N)=O)NC(=O)[C@H](CCCNC(=N)N)NC(=O)[C@H](CCCNC(=N)N)NC(=O)[C@H](CCCCN)NC(=O)[C@H](CCCCN)NC(=O)[C@@H](N)CCCNC(=N)N)C(=O)N[C@@H](C)C(=O)N[C@@H](C)C(=O)N[C@@H](CCCNC(=N)N)C(=O)O [T-poly-Ala] (H-RKKRRQRRRGRRRHAARKRAARRLLAAR-OH) |  | > 100
5 | N=C(N)NCCC[C@H](NC(=O)[C@H](CCCNC(=N)N)NC(=O)[C@H](CCCNC(=N)N)NC(=O)[C@H](CCC(N)=O)NC(=O)[C@H](CCCNC(=N)N)NC(=O)[C@H](CCCNC(=N)N)NC(=O)[C@H](CCCCN)NC(=O)[C@H](CCCCN)NC(=O)[C@@H](N)CCCNC(=N)N)C(=O)NCC(=O)O [Tat, reference compound] (H-RKKRRQRRRG-OH) |  | > 100
